Assay results published in the NIST ThermoML archive (doi:10.1016/j.jct.2008.10.010).
Numbers after ± are expanded uncertainties.

Columns and labels:
[1] = 298.15 K; 101.33 kPa; Liquid; Pycnometric method
[2] = molar heat capacity at constant pressure; details: 101.33 kPa, Liquid, Small sample (50 mg) DSC
[3] = refractive index (Na D-line) (dimensionless); details: 298.15 K; 101.33 kPa; Liquid; Standard Abbe refractometry

OC1CCCC1 [cyclopentanol]
Details | mass density [kg/m3] | refractive index
[1] | 942.86 ± 0.95 | –
[3] | – | 1.4512 ± 0.0008

[2]
Details | molar heat capacity at constant pressure [J/K/mol]
284.16 K | 170.24 ± 2.6
285.15 K | 170.99 ± 2.6
286.16 K | 171.81 ± 2.7
287.14 K | 172.53 ± 2.7
288.15 K | 173.41 ± 2.7
289.16 K | 174.28 ± 2.7
290.14 K | 175.01 ± 2.7
291.15 K | 175.87 ± 2.7
292.16 K | 176.75 ± 2.7
293.14 K | 177.58 ± 2.8
294.15 K | 178.43 ± 2.8
295.16 K | 179.3 ± 2.8
296.14 K | 180.09 ± 2.8
297.15 K | 180.97 ± 2.8
298.14 K | 181.8 ± 2.8
298.15 K | 181.82 ± 2.8
298.16 K | 181.83 ± 2.8
299.14 K | 182.68 ± 2.8
300.15 K | 183.51 ± 2.8
301.16 K | 184.44 ± 2.9
302.14 K | 185.33 ± 2.9
303.15 K | 186.22 ± 2.9
304.16 K | 187.09 ± 2.9
305.14 K | 188.03 ± 2.9
306.15 K | 188.94 ± 2.9
307.16 K | 189.83 ± 2.9
308.14 K | 190.71 ± 3
309.15 K | 191.61 ± 3
310.16 K | 192.53 ± 3
311.14 K | 193.42 ± 3
312.15 K | 194.35 ± 3
313.16 K | 195.28 ± 3
314.14 K | 196.15 ± 3
315.15 K | 197.1 ± 3
316.16 K | 198.01 ± 3.1
317.14 K | 198.91 ± 3.1
318.15 K | 199.88 ± 3.1
319.15 K | 200.81 ± 3.1
320.14 K | 201.63 ± 3.1
321.15 K | 202.63 ± 3.1
322.15 K | 203.57 ± 3.1
323.14 K | 204.44 ± 3.2
324.15 K | 205.36 ± 3.2
325.15 K | 206.28 ± 3.2
326.16 K | 207.24 ± 3.2
327.15 K | 208.09 ± 3.2
328.15 K | 209.05 ± 3.2
329.14 K | 209.96 ± 3.2
330.14 K | 210.87 ± 3.3
331.15 K | 211.73 ± 3.3
332.14 K | 212.64 ± 3.3
333.14 K | 213.55 ± 3.3
334.15 K | 214.51 ± 3.3
335.16 K | 215.32 ± 3.3
336.14 K | 216.18 ± 3.4
337.15 K | 217.08 ± 3.4
338.16 K | 218.05 ± 3.4
339.14 K | 218.88 ± 3.4
340.15 K | 219.81 ± 3.4
341.16 K | 220.6 ± 3.4
342.14 K | 221.48 ± 3.4
343.15 K | 222.33 ± 3.4
344.16 K | 223.27 ± 3.5
345.14 K | 224.05 ± 3.5
346.15 K | 224.85 ± 3.5
347.16 K | 225.68 ± 3.5
348.14 K | 226.51 ± 3.5
349.15 K | 227.32 ± 3.5
350.15 K | 228.13 ± 3.5
351.14 K | 228.9 ± 3.5
352.15 K | 229.66 ± 3.6
353.15 K | 230.44 ± 3.6
